Experiments:
[1] = tested on: PBMC from FIV-vaccinated cats; test: Feline IL2 ELISpot of PBMC from vaccinated cats; format: cell-based, cat; settings: FIV peptides
Description: (§1) IFNγ and IL2 ELISpot analyses were performed using feline IFNγ ELISpot and feline IL2 ELISpot kits (R&D Systems, Cat# SEL764 and SEL1890) as described. The threshold is defined as ≥50 spot forming units (SFU) per 1×10^6 PBMC when counted with MVS ELISpot Reader (MVS Pacific, LLC). Each result is an average of the duplicate samples after subtraction of the average value of the media controls.
(§2) Concurrently, the overlapping peptide pools of FIV structural/enzyme proteins were used to stimulate PBMC and T cells from FIV-vaccinated cats. These cats were vaccinated with prototype dual-subtype FIV vaccine which was the prototype to our commercial FIV vaccine (Coleman et al., 2014). The feline assays (Example 1) equivalent to those of human assays (Sanou et al., 2013; Roff et al., 2015) were used except for ICS analysis. In place of ICS for cytolysin/cytotoxins, IL2 ELISpot analysis was performed. […] The results for FIV-vaccinated cats included IFNγ and IL2 productions and CD3^+CD4+ and CD3^+CD8^+ T-cell proliferation (Table 9, the second set of results).
(§3) The feline IFNγ and L2 ELISpot analyses of PBMC to FIV MAPs and peptides were performed as previously described (Abbott et al. (2012)) using feline IFNγ modular kit (R&D Systems, Minneapolis, Minn.) and feline IL2 modular kit (R&D Systems). All results shown in the figures (FIGS. 8A-1, 8B-1, 8A-2, 8B-2, 8A-3, 8B-3) are after subtracting the average value of the results from all control cats.
(§4) The second parameter evaluated was the ability of the peripheral blood mononuclear cells (PBMC) from vaccinated and control cats to produce IL2 and interferon-γ (IFNγ) proteins in responses to FIV MAPs and peptides (FIGS. 8A-1, 8A-2, 8A-3, 8B-1, 8B-2, 8B-3) using feline IL2 and IFNγ ELISpot assays (Aranyos et al. (2016); Abbott et al. (2012)). IL2 enhances the proliferation of FIV-specific CD4^+ T cells and CD8^+ T cells. IFNγ is known enhance the FIV-specific CTL activities in vaccinated cats (Abbas et al. (2015)).

[2] = tested on: feline CD3^+CD4^+ T cells; test: CFSE-based feline CD3+CD4+ T-cell proliferation; set-up: species or system cat; settings: FIV peptides; FIV-vaccinated cats
Description: (§5) Carboxyfluorescein diacetate succinimide ester (CFSE)-proliferation was performed according to the manufacturer's protocol (Invitrogen, Grand Island, N.Y.) and processed using a previously described modification. The modification consisted of 2.5×10^5 CFSE-labeled feline PBMC stimulated for 5 days (37° C., 5% CO2) with 4 μg/mL peptide in culture media (RPMI medium 25 µg/mL gentamycin, and 10% heat-inactivated fetal bovine serum (FBS)). Peptide pools consisted of 3-5 overlapping peptides of 4 μg/mL each. The antibodies used for flow cytometry based proliferation analysis consisted of murine anti-feline (Fe) CD3 monoclonal antibody (MAb clone kindly provided by Drs. Yorihiro Nishimura and Takayuki Miyazawa; described in [32]) combined with secondary goat anti-mouse IgG3-APC/CY7 MAb (SouthernBiotech, Birmingham, Ala.; Cat#1100-19); and murine anti-FeCD4-PE MAb (SouthernBiotech, Cat#8130-09); and murine anti-FeCD8 MAb (MAb clone kindly provided by Dr. Nazareth Gengozian, described in [33]) with secondary goat anti-mouse IgG2a-PE/CY7 (Southern Biotech, Cat#1080-17). The murine anti-B220-APC MAb for detecting feline B cells (SouthernBiotech, Cat#1665-11) and previously described MAbs for CFSE were used for FACS phenotyping. Both FACS phenotyping and CFSE-proliferation analyses were performed with BD LSRII and FACSDiva™ Software (BD Biosciences, San Jose, Calif.). The final value for each sample was derived after subtraction of the average value of the media controls using a positive threshold of ≥1 CFSE^low.
as §2
(§6) Carboxyfluorescein diacetate succinimide ester (CFSE)-proliferation analysis was according to the manufacturer's protocol (Invitrogen-Fisher, Carlsbad, Calif.) and processed as previously described (Roff et al. (2015)) using the following modifications: anti-feline CD3 antibody ((clone NZM1), a generous gift from T. Miyazawa (Univ. of Tokyo, Japan)) in combination with APC-conjugated anti-mouse IgG3 (Southern Biotech, Birmingham, Ala.), PE-conjugated anti-feline CD4 antibody (Southern Biotech), and anti-feline CD8 antibody (gift from N. Gengozian, University of Tennessee (Gengozian et al. (1997))) in combination with PE/Cy7-conjugated anti-mouse IgG2b (Southern Biotech) to detect the proliferation of feline CD3^+CD4+ T cells and feline […]. All results shown in the figures (FIGS. 7A-1, 7B-1, 7A-2, 7B-2, 7A-3, 7B-3) are after subtracting the average value of each results from all control cats. The threshold of CFSE proliferation is ≥0.5 CFSE^low. […]

FIVFC1 = test: FIV enhancement and suppression (E/S) analysis of in vitro FIV infection of feline PBMC; format: cell-based, feline immunodeficiency virus; settings: FIV peptides; in vitro FIV infection of uninfected cat PBMC
Description: FIV viral enhancement or suppression was determined using a 48-well modification of the method described for detecting FIV enhancing activity of IFNγ and FIV suppressive activity of IFNα [37]. […] MAP1c contained four branched chains of peptide Fp4-3. T-cell mitogen concanavalin A (ConA) at 4 μg/mL was used as an infection enhancing control. Six hours after the culturing with peptide, MAP, or ConA, varying dilutions of FIVFC1 were added to the wells. Seventy-two hours later the cells were re-cultured in fresh culture media with ConA-stimulated autologous PBMC (0.25-0.5×10^6) using the same amount of corresponding peptide, MAP, ConA or media. On Day 7, 10, and 13 of culture, 0.5 mL of culture fluid was collected and 0.5 mL of fresh media added to maintain a consistent volume. The harvested culture samples were analyzed for FIV titer using the previously described RT assay. The results are shown as the end-point dilution titer from two studies using PBMC from different SPF donors.
Statistical analysis. The statistically significant differences between the end-point dilution titers of the peptide or MAP culture samples and either the virus control samples or specific MAP culture samples were calculated using a paired Student t-test with a two-tailed distribution (SigmaPlot version 11.0). Statistical comparisons between pre and post-vaccination(s) were similarly performed. The comparison was considered statistically significant when p<0.05.

[3] = tested on: PBMC from FIV-vaccinated cats; test: Feline IFNγ ELISpot of PBMC from vaccinated cats; format: cell-based, cat; settings: FIV peptides; FIV-vaccinated cats (prototype dual-subtype vaccine)
Description: as §1, §2, §3, §4

[4] = tested on: feline CD3^+CD8^+ T cells; test: CFSE-based feline CD3+CD8+ T-cell proliferation; set-up: species or system cat; settings: FIV peptides; FIV-vaccinated cats
Description: as §5, §2, §6

[5] = tested on: CD8^+ T cells from HIV^+ subjects; test: FACS-based intracellular staining (ICS) for cytolysin (perforin) and cytotoxins (GrzA, GrzB) in CD8+ T cells; settings: HIV-1 epitope peptide; HIV+ human subjects; threshold ≥0.2%
Description: (§7) The overlapping peptide pools of FIV and HIV-1 structural and enzyme proteins were used to stimulate the […] (PBMC) and the T cells from HIV^+ subjects as previously described for epitope mapping of HIV-1 and FIV p24 and reverse transcriptase (RT) (Sanou et al., 2013; Roff et al., 2015). The individual peptides in those peptide pools with positive responses to either interferon-γ (IFNγ) production and/or T-cell proliferation were determined with IFNγ ELISpot analysis and CFSE-based CD3^+CD4^+ and CD3^+CD8^+ T-cell proliferation analyses followed by the FACS-based intracellular staining (ICS) for cytolysin (perforin) and cytotoxin (granzyme A [GrzA] and GrzB) (Sanou et al., 2013; Roff et al., 2015). Besides viral p24 and RT proteins, the identical approach was used to identify anti-HIV/FIV T-cell epitopes on viral matrix (MA), nucleocapsid (NC), protease (PR), RNAase, integrase (IN), surface envelope (SU Env), and transmembrane envelope (TM Env) (FIG. 12).
(§8) Since our goal is to develop HIV vaccine for human use, the HIV peptides (Table 10) counterpart of the cross-reactive FIV peptides shown in Table 9 were tested with PBMC and T cells from HIV^+ subjects. The immune functions analyzed were human IFNγ production by ELISpot, cytolysin/cytotoxin production by ICS, and CFSE-based proliferation of CD3^+CD4^+ and CD3^+CD8^+ T cells from HIV^+ subjects (Table 10, the first set of results). In addition, the Los Alamos National Laboratories (LANL) database was used to identify the HLA allele(s) of the HIV epitope sequence with CTL activity that can exist within the sequence of the conserved counterpart HIV peptide (Table 9, LANL CTL). The bold HLA class-I supertypes and the bold 2-digit alleles are those on the “Optimal CD8^+ CTL Epitopes” list and those without bold are alleles for potential CTL epitope. […] The HLA class II such as HLA-DRB1 has yet to be fully classified into supertypes, and therefore the 4-digit resolution nomenclatures for the HLA-DRB1 alleles are shown.
The threshold for positive IFNγ and IL2 ELISpot responses is ≥50 spot-forming units (SFU) per 10^6 PBMC. The threshold for CFSE-based CD4^+ and CD8^+ T-cell proliferation is ≥2% CD4^+ T-cell CFSE^low or CD8^+ T-cell CFSE^low. The threshold of FACS-based intracellular cytokine staining (ICS) is ≥0.2%. […] The nine FIV peptides in black were used in the current MAP vaccine trial, whereas the 13 peptides in blue were not used. […] The MAPs and their corresponding peptide(s) were also tested for their ability to enhance or suppress in vitro FIV infection of feline PBMC (E/S of peptides and E/S of MAP).
(§9) The counterpart HIV-1 peptides of the FIV peptides were also tested for immunogenicity using PBMC and T cells from HIV^+ human subjects. […] The HRT7-1 and HRT7-2 were also tested with cells from HIV^+ subjects on ART. The threshold for positive IFNγ ELISpot response is ≥75 spot-forming units (SFU) per 10^6 PBMC. The threshold for CFSE-based CD4^+ (CD4^+ T) and CD8^+ (CD8^+ T) T-cell proliferation is ≥2% CD4^+ T-cell CFSE^low or CD8^+ T-cell CFSE^low. The threshold of intracellular cytokine staining (ICS) of FACS-based cytolysin (perforin) and cytotoxins (granzymes A and B) in CD4^+ T cells (CyCD4) and CD8^+ T cells (CyCD8) is ≥0.2%. […] The nine HIV-1 peptides in black are the counterpart FIV peptides used in the current MAP vaccine trial, whereas the 13 peptides in blue were not.

[6] = tested on: CD4^+ T cells from HIV^+ subjects; settings: HIV+ human subjects
Description: as §7, §8, §9

Compound | IL2, frequency of responders [1] | CDC4^+ T (T-cell proliferation), frequency of responders [2] | FIV Test E/S (enhancer/suppressor analysis) (FIVFC1) | IFNγ, frequency of responders [3] | CD8^+ T (T-cell proliferation), frequency of responders [4] | CyCD8: CD8+ T-cell cytolysin/cytotoxins (perforin, GrzA & B), frequency of responders [5] | CyCD4: CD4+ T-cell cytolysin/cytotoxins (perforin, GrzA & B), frequency of responders ([6]; HIV-1 epitope peptide, threshold ≥0.2%) | CyCD4 (cytolysin and cytotoxin production of CD4+ T cells), frequency of responders ([6]; HIV-1 peptides)
RAWYLEALGKLAAIKAK [Fp10-2/3, overlapping peptide of MAP6] | +++ (40.1%-54% (+++)) | — (0%-1.4%(—)) | ↓ | — (0%-1.4%(—)) | — (0%-1.4%(—)) |  |  | 
CC(C)C[C@H](NC(=O)[C@H](CCC(=O)O)NC(=O)[C@H](CCCNC(=N)N)NC(=O)[C@H](Cc1ccccc1)NC(=O)[C@H](CC(=O)O)NC(=O)[C@@H](NC(=O)[C@H](CC(C)C)NC(=O)[C@H](CCCCN)NC(=O)[C@H](CCCNC(=N)N)NC(=O)[C@@H](N)Cc1c[nH]c2ccccc12)C(C)C)C(=O)N[C@@H](CC(N)=O)C(=O)N[C@@H](CCCCN)C(=O)N[C@@H](CCCNC(=N)N)C(=O)O [HRT3-4] |  |  |  |  |  | ++++ (>54% (++++)) | ++++ (>54% (++++)) | ++++ (>54% (++++))

— patent US10758609B2, “Cross-reactive T-cell epitopes of HIV, SIV, and FIV for vaccines in humans and cats” (priority 2015, dated 2020)
